Reference: ChEMBL document CHEMBL4507297, “Data for DCP probe PF-04457845” (2021)

Columns and labels:
[1] = target: Activin receptor type-1B (Homo sapiens) (UniProt P36896); settings: Compound concentration 1000.0 nM
[2] = target: Ankyrin repeat and protein kinase domain-containing protein 1 (Homo sapiens) (UniProt Q8NFD2); settings: Compound concentration 1000.0 nM
[3] = target: NUAK family SNF1-like kinase 1 (Homo sapiens) (UniProt O60285); settings: Compound concentration 1000.0 nM
[4] = target: Aurora kinase C (Homo sapiens) (UniProt Q9UQB9); settings: Compound concentration 1000.0 nM
[5] = target: Bone morphogenetic protein receptor type-1A (Homo sapiens) (UniProt P36894); settings: Compound concentration 1000.0 nM
[6] = target: Serine/threonine-protein kinase B-raf (Homo sapiens) (UniProt P15056); settings: Compound concentration 1000.0 nM
[7] = target: Calcium/calmodulin-dependent protein kinase type IV (Homo sapiens) (UniProt Q16566); settings: Compound concentration 1000.0 nM
[8] = target: Cyclin-dependent kinase-like 1 (Homo sapiens) (UniProt Q00532); settings: Compound concentration 1000.0 nM
[9] = target: Dual specificity protein kinase CLK1 (Homo sapiens) (UniProt P49759); settings: Compound concentration 1000.0 nM
[10] = target: Serine/threonine-protein kinase DCLK1 (Homo sapiens) (UniProt O15075); settings: Compound concentration 1000.0 nM
[11] = target: Serine/threonine-protein kinase 17B (Homo sapiens) (UniProt O94768); settings: Compound concentration 1000.0 nM
[12] = target: Dual specificity tyrosine-phosphorylation-regulated kinase 1A (Homo sapiens) (UniProt Q13627); settings: Compound concentration 1000.0 nM
[13] = target: Dual specificity tyrosine-phosphorylation-regulated kinase 2 (Homo sapiens) (UniProt Q92630); settings: Compound concentration 1000.0 nM
[14] = tested on: Epidermal growth factor receptor (Homo sapiens), P00533 [L858R]; settings: Compound concentration 1000.0 nM
[15] = tested on: Epidermal growth factor receptor (Homo sapiens), P00533 [T790M]; settings: Compound concentration 1000.0 nM
[16] = target: Focal adhesion kinase 1 (Homo sapiens) (UniProt Q05397); settings: Compound concentration 1000.0 nM
[17] = target: Tyrosine-protein kinase Fgr (Homo sapiens) (UniProt P09769); settings: Compound concentration 1000.0 nM
[18] = target: Receptor-type tyrosine-protein kinase FLT3 (Homo sapiens) (UniProt P36888); settings: Compound concentration 1000.0 nM
[19] = target: G protein-coupled receptor kinase 3 (Homo sapiens) (UniProt P35626); settings: Compound concentration 1000.0 nM
[20] = target: G protein-coupled receptor kinase 4 (Homo sapiens) (UniProt P32298); settings: Compound concentration 1000.0 nM
[21] = target: Tyrosine-protein kinase HCK (Homo sapiens) (UniProt P08631); settings: Compound concentration 1000.0 nM
[22] = target: Insulin-like growth factor 1 receptor (Homo sapiens) (UniProt P08069); settings: Compound concentration 1000.0 nM
[23] = target: Serine/threonine-protein kinase LATS2 (Homo sapiens) (UniProt Q9NRM7); settings: Compound concentration 1000.0 nM
[24] = target: Serine/threonine-protein kinase 10 (Homo sapiens) (UniProt O94804); settings: Compound concentration 1000.0 nM
[25] = tested on: Leucine-rich repeat serine/threonine-protein kinase 2 (Homo sapiens), Q5S007 [G2019S]; settings: Compound concentration 1000.0 nM
[26] = target: Mitogen-activated protein kinase kinase kinase kinase 2 (Homo sapiens) (UniProt Q12851); settings: Compound concentration 1000.0 nM
[27] = target: MAP kinase-interacting serine/threonine-protein kinase 1 (Homo sapiens) (UniProt Q9BUB5); settings: Compound concentration 1000.0 nM
[28] = target: Serine/threonine-protein kinase Nek10 (Homo sapiens) (UniProt Q6ZWH5); settings: Compound concentration 1000.0 nM
[29] = target: Mitogen-activated protein kinase kinase kinase 14 (Homo sapiens) (UniProt Q99558); settings: Compound concentration 1000.0 nM
[30] = target: Serine/threonine-protein kinase PLK2 (Homo sapiens) (UniProt Q9NYY3); settings: Compound concentration 1000.0 nM
[31] = target: Protein kinase C eta type (Homo sapiens) (UniProt P24723); settings: Compound concentration 1000.0 nM
[32] = target: Protein kinase C iota type (Homo sapiens) (UniProt P41743); settings: Compound concentration 1000.0 nM
[33] = target: Serine/threonine-protein kinase D2 (Homo sapiens) (UniProt Q9BZL6); settings: Compound concentration 1000.0 nM
[34] = target: Serine/threonine-protein kinase D3 (Homo sapiens) (UniProt O94806); settings: Compound concentration 1000.0 nM
[35] = target: cAMP-dependent protein kinase catalytic subunit PRKX (Homo sapiens) (UniProt P51817); settings: Compound concentration 1000.0 nM
[36] = target: Protein-tyrosine kinase 2-beta (Homo sapiens) (UniProt Q14289); settings: Compound concentration 1000.0 nM
[37] = target: Ribosomal protein S6 kinase alpha-2 (Homo sapiens) (UniProt Q15349); settings: Compound concentration 1000.0 nM
[38] = target: NUAK family SNF1-like kinase 2 (Homo sapiens) (UniProt Q9H093); settings: Compound concentration 1000.0 nM
[39] = target: Transient receptor potential cation channel subfamily M member 6 (Homo sapiens) (UniProt Q9BX84); settings: Compound concentration 1000.0 nM
[40] = target: Vascular endothelial growth factor receptor 2 (Homo sapiens) (UniProt P35968); settings: Compound concentration 1000.0 nM
[41] = target: Phosphatidylinositol 3-kinase catalytic subunit type 3 (Homo sapiens) (UniProt Q8NEB9); settings: Compound concentration 1000.0 nM
[42] = target: Wee1-like protein kinase 2 (Homo sapiens) (UniProt P0C1S8); settings: Compound concentration 1000.0 nM
[43] = target: 5-hydroxytryptamine receptor 6 (Homo sapiens) (UniProt P50406); settings: Compound concentration 10.0 uM
[44] = target: Muscarinic acetylcholine receptor M5 (Homo sapiens) (UniProt P08912); settings: Compound concentration 10.0 uM
[45] = target: Sigma intracellular receptor 2 (Homo sapiens, UniProt Q5BJF2); settings: Compound concentration 10.0 uM
Sigma intracellular receptor 2, sequence (Q5BJF2 whole entry): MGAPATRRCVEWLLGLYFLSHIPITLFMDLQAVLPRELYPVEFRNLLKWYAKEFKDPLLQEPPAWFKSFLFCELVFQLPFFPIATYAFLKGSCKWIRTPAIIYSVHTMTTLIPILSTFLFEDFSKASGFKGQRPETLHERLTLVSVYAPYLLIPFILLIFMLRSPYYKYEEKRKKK

Tyrosine-protein kinase Fgr (Homo sapiens), sequence (P09769 2-529 limits assumed): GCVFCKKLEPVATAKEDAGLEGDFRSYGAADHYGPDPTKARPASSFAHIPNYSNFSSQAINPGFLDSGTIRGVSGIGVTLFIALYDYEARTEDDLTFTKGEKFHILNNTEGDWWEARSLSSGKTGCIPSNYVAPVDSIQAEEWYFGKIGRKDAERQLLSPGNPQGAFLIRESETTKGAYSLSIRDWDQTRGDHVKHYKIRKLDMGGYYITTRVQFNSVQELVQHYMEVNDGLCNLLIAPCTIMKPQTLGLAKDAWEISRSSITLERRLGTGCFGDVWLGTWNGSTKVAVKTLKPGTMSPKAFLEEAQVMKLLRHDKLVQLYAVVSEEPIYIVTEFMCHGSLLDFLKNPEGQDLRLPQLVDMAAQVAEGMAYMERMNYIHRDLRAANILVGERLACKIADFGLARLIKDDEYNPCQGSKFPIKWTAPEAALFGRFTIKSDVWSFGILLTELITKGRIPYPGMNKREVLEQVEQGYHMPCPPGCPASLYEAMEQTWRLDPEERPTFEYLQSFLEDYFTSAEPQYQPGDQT
MAP kinase-interacting serine/threonine-protein kinase 1 (Homo sapiens), sequence (Q9BUB5 whole entry, looked up): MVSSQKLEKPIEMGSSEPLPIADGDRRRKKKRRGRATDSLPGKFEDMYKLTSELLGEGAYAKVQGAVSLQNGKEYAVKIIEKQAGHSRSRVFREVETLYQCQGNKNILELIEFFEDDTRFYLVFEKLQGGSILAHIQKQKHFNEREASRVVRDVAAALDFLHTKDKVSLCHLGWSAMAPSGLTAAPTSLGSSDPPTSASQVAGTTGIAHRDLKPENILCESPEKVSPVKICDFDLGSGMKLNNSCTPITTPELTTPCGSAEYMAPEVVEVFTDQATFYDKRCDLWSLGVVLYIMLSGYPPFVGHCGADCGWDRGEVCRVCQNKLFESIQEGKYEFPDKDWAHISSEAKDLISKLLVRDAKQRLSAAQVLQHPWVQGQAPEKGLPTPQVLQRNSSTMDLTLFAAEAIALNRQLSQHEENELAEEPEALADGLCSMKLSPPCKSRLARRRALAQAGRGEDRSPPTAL
Serine/threonine-protein kinase D2 (Homo sapiens), sequence (Q9BZL6 whole entry): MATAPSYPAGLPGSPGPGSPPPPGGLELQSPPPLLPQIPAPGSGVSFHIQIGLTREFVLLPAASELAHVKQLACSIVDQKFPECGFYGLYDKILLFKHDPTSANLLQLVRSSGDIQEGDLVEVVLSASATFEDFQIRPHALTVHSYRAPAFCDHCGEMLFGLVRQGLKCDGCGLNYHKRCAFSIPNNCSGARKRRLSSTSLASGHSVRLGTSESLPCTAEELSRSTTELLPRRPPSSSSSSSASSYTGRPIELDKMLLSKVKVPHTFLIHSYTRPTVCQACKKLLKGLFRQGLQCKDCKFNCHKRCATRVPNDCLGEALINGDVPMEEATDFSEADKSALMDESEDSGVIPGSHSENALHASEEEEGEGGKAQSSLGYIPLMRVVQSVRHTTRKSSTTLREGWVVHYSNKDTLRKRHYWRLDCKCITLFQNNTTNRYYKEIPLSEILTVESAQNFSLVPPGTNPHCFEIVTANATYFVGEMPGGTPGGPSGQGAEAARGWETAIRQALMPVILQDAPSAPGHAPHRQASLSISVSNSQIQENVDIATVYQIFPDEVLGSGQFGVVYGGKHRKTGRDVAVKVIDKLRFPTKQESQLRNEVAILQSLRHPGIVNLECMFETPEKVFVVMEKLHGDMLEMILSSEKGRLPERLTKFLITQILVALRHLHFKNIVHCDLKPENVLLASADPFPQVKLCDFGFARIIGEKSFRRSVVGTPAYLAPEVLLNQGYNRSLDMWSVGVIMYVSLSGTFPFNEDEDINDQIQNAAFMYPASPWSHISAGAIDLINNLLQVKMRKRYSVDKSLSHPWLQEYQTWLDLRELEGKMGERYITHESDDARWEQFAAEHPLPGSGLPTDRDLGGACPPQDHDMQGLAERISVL
Tyrosine-protein kinase HCK (Homo sapiens), sequence (P08631 2-526 limits assumed): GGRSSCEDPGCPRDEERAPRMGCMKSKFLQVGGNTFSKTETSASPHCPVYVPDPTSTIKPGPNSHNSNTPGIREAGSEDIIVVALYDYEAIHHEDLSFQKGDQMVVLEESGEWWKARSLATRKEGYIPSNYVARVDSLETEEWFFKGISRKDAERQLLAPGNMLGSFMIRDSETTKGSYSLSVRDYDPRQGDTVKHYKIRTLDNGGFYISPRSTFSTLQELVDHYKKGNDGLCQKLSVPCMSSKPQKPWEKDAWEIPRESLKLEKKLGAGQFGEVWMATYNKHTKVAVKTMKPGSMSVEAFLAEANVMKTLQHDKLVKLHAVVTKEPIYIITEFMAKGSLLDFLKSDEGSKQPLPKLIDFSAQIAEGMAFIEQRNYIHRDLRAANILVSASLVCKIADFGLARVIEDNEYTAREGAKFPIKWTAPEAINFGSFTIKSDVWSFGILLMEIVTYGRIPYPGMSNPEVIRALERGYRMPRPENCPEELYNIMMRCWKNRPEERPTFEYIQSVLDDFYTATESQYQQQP
Muscarinic acetylcholine receptor M5 (Homo sapiens), sequence (P08912 whole entry): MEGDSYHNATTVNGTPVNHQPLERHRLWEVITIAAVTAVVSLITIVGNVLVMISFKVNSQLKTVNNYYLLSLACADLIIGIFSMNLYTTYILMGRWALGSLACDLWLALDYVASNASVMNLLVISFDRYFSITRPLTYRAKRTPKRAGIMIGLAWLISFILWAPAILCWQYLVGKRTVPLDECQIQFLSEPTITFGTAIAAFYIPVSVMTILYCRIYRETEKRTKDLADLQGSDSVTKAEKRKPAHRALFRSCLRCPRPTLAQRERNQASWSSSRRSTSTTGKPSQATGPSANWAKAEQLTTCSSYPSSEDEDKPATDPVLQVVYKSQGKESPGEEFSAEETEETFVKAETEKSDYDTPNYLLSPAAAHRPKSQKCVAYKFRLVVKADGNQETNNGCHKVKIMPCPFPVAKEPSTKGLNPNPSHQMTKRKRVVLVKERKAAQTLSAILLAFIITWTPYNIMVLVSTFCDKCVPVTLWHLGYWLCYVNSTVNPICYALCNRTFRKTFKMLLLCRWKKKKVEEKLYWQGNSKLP
G protein-coupled receptor kinase 4 (Homo sapiens), sequence (P32298 whole entry, looked up): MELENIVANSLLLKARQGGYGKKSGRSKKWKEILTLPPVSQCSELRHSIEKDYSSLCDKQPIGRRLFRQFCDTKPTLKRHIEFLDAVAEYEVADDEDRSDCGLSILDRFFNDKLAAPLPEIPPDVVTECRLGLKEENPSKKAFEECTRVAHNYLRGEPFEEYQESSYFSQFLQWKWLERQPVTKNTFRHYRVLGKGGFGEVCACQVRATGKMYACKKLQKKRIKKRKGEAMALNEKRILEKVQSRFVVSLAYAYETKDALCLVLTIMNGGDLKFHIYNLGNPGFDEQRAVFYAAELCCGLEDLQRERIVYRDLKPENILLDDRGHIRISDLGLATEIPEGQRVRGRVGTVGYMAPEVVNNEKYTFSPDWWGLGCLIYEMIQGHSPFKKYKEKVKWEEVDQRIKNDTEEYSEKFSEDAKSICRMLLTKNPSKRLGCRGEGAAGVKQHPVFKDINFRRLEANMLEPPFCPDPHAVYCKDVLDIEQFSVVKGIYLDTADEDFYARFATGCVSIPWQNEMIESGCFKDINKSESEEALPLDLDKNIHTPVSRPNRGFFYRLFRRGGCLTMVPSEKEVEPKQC
G protein-coupled receptor kinase 3 (Homo sapiens), sequence (P35626 whole entry): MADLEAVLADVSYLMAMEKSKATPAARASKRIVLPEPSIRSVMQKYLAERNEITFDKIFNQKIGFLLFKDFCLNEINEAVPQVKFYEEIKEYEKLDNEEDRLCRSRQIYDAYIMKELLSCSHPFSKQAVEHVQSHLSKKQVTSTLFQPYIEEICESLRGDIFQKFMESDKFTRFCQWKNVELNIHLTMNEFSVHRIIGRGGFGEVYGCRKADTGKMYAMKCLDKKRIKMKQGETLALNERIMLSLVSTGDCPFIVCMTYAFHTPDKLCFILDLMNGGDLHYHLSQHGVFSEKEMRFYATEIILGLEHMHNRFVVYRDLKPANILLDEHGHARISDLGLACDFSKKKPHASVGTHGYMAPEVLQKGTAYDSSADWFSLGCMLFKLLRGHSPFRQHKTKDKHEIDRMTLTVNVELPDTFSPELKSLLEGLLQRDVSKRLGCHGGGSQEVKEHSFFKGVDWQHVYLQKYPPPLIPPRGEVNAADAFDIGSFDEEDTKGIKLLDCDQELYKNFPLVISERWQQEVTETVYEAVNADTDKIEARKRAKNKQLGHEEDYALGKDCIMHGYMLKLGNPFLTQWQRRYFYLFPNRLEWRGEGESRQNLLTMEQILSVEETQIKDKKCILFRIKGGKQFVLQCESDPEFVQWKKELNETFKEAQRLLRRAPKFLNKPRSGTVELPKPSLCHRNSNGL
Protein kinase C iota type (Homo sapiens), sequence (P41743 whole entry): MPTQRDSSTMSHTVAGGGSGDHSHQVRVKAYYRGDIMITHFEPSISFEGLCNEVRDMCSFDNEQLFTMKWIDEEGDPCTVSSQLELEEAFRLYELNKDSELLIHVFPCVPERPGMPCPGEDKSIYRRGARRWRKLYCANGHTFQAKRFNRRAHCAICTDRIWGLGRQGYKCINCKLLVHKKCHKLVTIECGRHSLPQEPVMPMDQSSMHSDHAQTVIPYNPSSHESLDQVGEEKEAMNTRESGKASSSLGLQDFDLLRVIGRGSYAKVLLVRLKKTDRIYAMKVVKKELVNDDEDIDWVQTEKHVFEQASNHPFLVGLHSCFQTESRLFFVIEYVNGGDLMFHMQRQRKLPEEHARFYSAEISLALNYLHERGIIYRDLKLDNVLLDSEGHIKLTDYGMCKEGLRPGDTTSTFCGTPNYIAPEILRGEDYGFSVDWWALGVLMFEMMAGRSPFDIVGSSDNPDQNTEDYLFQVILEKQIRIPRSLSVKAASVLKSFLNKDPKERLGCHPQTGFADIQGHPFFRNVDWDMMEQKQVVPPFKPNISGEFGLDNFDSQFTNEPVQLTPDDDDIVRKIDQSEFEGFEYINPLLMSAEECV

O=C(Nc1cccnn1)N1CC(C/C=C/c2cncc(Oc3ccc(C(F)(F)F)cn3)n2)C1
active: inhibition [45] 69%
inactive: residual activity [1] 79% | residual activity [2] 73% | residual activity [3] 100% | residual activity [4] 100% | residual activity [5] 100% | residual activity [6] 100% | residual activity [7] 100% | residual activity [8] 100% | residual activity [9] 100% | residual activity [10] 84% | residual activity [11] 100% | residual activity [12] 75% | residual activity [13] 81% | residual activity [14] 97% | residual activity [15] 100% | residual activity [16] 100% | residual activity [17] 100% | residual activity [18] 86% | residual activity [19] 100% | residual activity [20] 100% | residual activity [21] 100% | residual activity [22] 100% | residual activity [23] 100% | residual activity [24] 94% | residual activity [25] 100% | residual activity [26] 80% | residual activity [27] 67% | residual activity [28] 100% | residual activity [29] 77% | residual activity [30] 60% | residual activity [31] 100% | residual activity [32] 96% | residual activity [33] 100% | residual activity [34] 100% | residual activity [35] 92% | residual activity [36] 100% | residual activity [37] 100% | residual activity [38] 73% | residual activity [39] 73% | residual activity [40] 64% | residual activity [41] 88% | residual activity [42] 100% | inhibition [43] 7.76% | inhibition [44] -0.59%

O=C(Nc1cccnn1)N1CCC(=Cc2cccc(Oc3ccc(C(F)(F)F)cn3)c2)CC1
active: inhibition [45] 91.3%
inactive: residual activity [1] 88% | residual activity [2] 96% | residual activity [3] 86% | residual activity [4] 100% | residual activity [5] 100% | residual activity [6] 93% | residual activity [7] 63% | residual activity [8] 86% | residual activity [9] 95% | residual activity [10] 100% | residual activity [11] 100% | residual activity [12] 100% | residual activity [13] 81% | residual activity [14] 100% | residual activity [15] 100% | residual activity [16] 100% | residual activity [17] 63% | residual activity [18] 97% | residual activity [19] 100% | residual activity [20] 97% | residual activity [21] 98% | residual activity [22] 87% | residual activity [23] 84% | residual activity [24] 74% | residual activity [25] 100% | residual activity [26] 100% | residual activity [27] 100% | residual activity [28] 100% | residual activity [29] 100% | residual activity [30] 100% | residual activity [31] 77% | residual activity [32] 81% | residual activity [33] 94% | residual activity [34] 83% | residual activity [35] 87% | residual activity [36] 97% | residual activity [37] 80% | residual activity [38] 88% | residual activity [39] 98% | residual activity [40] 88% | residual activity [41] 100% | residual activity [42] 77% | inhibition [43] 40.6% | inhibition [44] 23.5%
